What was measured:
Test in all cases: relative viability (nuclei count vs DMSO), 5 days (fraction); higher = more cells survive
FG-4592 + Pictilisib = compound: Cc1nc(C(=O)NCC(=O)O)c(O)c2ccc(Oc3ccccc3)cc12 [FG-4592] + CS(=O)(=O)N1CCN(Cc2cc3nc(-c4cccc5[nH]ncc45)nc(N4CCOCC4)c3s2)CC1 [Pictilisib] (partner 1 µM)
Method in brief: (§1)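 Relative viability is defined as nuclei in treated wells over nuclei in vehicle wells. Duplicate plates were run and medians reported. Lung cancer cell lines in 1536-well plates were dosed by pin tool one day after seeding, with one drug or with a fixed anchor-drug dose plus five library-drug doses (not always all listed) in √10 steps, and nuclei were counted after 5 days.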

IU1-47 + Luminespib = compound: CC1=CC(=C(N1C2=CC=C(C=C2)Cl)C)C(=O)CN3CCCCC3 [IU1-47] + CCNC(=O)c1noc(-c2cc(C(C)C)c(O)cc2O)c1-c1ccc(CN2CCOCC2)cc1 [Luminespib] (partner 0.01 µM)
Method in brief: as §1

IU1-47 + Trametinib = compound: CC1=CC(=C(N1C2=CC=C(C=C2)Cl)C)C(=O)CN3CCCCC3 [IU1-47] + CC(=O)Nc1cccc(-n2c(=O)n(C3CC3)c(=O)c3c(Nc4ccc(I)cc4F)n(C)c(=O)c(C)c32)c1 [Trametinib] (partner 0.02 µM)
Method in brief: as §1

FG-4592 + Olaparib = compound: Cc1nc(C(=O)NCC(=O)O)c(O)c2ccc(Oc3ccccc3)cc12 [FG-4592] + O=C(c1cc(Cc2n[nH]c(=O)c3ccccc23)ccc1F)N1CCN(C(=O)C2CC2)CC1 [Olaparib] (partner 8 µM)
Method in brief: as §1

Cell Line | relative viability (FG-4592 + Pictilisib; first compound 0.08 µM) | relative viability (FG-4592 + Pictilisib; first compound 0.253 µM) | relative viability (FG-4592 + Pictilisib; first compound 0.8 µM) | relative viability (FG-4592 + Pictilisib; first compound 2.53 µM) | relative viability (FG-4592 + Pictilisib; first compound 8 µM) | relative viability (IU1-47 + Luminespib; first compound 0.08 µM) | relative viability (IU1-47 + Luminespib; first compound 0.253 µM) | relative viability (IU1-47 + Luminespib; first compound 0.8 µM) | relative viability (IU1-47 + Luminespib; first compound 8 µM) | relative viability (IU1-47 + Trametinib; first compound 0.08 µM) | relative viability (IU1-47 + Trametinib; first compound 0.253 µM) | relative viability (IU1-47 + Trametinib; first compound 0.8 µM) | relative viability (IU1-47 + Trametinib; first compound 2.53 µM) | relative viability (IU1-47 + Trametinib; first compound 8 µM) | relative viability (FG-4592 + Olaparib; first compound 0.08 µM) | relative viability (FG-4592 + Olaparib; first compound 0.253 µM) | relative viability (FG-4592 + Olaparib; first compound 0.8 µM) | relative viability (FG-4592 + Olaparib; first compound 2.53 µM) | relative viability (FG-4592 + Olaparib; first compound 8 µM) | relative viability (IU1-47 + Luminespib; first compound 2.53 µM)
NCI-H1734 | 0.417 | 0.47 | 0.405 | 0.482 | 0.491 | 0.181 | 0.202 | 0.18 | 0.215 | 0.867 | 0.67 | 0.593 | 0.647 | 0.645 | 0.597 | 0.61 | 0.664 | 0.68 | 0.605 | –
NCI-H1755 | 0.303 | 0.4 | 0.306 | 0.442 | 0.444 | 0.273 | 0.465 | 0.325 | 0.451 | 0.794 | 0.756 | 0.891 | 0.812 | 0.794 | 0.873 | 0.837 | 0.762 | 0.907 | 0.799 | 0.479
NCI-H1792 | 0.296 | 0.248 | 0.279 | 0.246 | 0.318 | 0.573 | 0.358 | 0.515 | 0.568 | 0.569 | 0.392 | 0.437 | 0.402 | 0.422 | 0.487 | 0.432 | – | 0.457 | 0.497 | 0.308
NCI-H1793 | 0.281 | 0.384 | – | 0.228 | 0.354 | 0.177 | 0.188 | 0.165 | 0.171 | 0.42 | – | 0.554 | 0.513 | 0.416 | – | 0.727 | – | 0.827 | 0.71 | –
NCI-H1915 | 0.913 | 0.915 | 0.873 | 0.93 | 0.95 | 0.816 | 0.804 | 0.848 | 0.728 | 0.296 | 0.288 | 0.28 | 0.3 | 0.324 | 0.25 | 0.248 | 0.276 | 0.253 | 0.282 | –
NCI-H1944 | 0.3 | 0.336 | 0.294 | 0.356 | 0.363 | 0.989 | 0.764 | 0.832 | 0.778 | 0.453 | 0.473 | 0.414 | 0.386 | 0.415 | 0.437 | 0.392 | 0.443 | 0.376 | 0.419 | 0.729
NCI-H1975 | 0.284 | 0.266 | 0.259 | 0.253 | 0.244 | 0.142 | 0.198 | 0.199 | 0.37 | 0.337 | 0.324 | 0.464 | 0.328 | 0.322 | 0.786 | 0.747 | 0.883 | 0.849 | 0.721 | 0.228
NCI-H1993 | 0.834 | 0.774 | 0.854 | 0.851 | 0.66 | 0.857 | 0.888 | 0.804 | 0.716 | 0.545 | 0.613 | 0.564 | 0.471 | 0.0511 | 0.947 | 0.926 | – | 1.01 | 0.929 | 0.868
NCI-H2009 | 0.718 | 0.653 | 0.647 | 0.671 | 0.749 | 1.09 | 1.04 | 0.986 | 1.05 | 0.257 | 0.3 | 0.254 | 0.274 | 0.25 | 0.663 | 0.637 | 0.715 | 0.718 | 0.621 | 1.01

Reference: the supplement of paper PMC10307832
